Assay results reported in patent publication US20240252670A1, “ANTIBODY DRUG CONJUGATE, PREPARATION METHOD THEREFOR AND APPLICATION THEREOF” (TSINGHUA UNIVERSITY, priority 2021, published 2024).

Assays:
MC38 cells = assay: Internalization of pHrodo red labeled anti-PD-L1 THIOMAB in cancer cells (IncuCyte); format: cell-based, mouse; conditions: 24 h, pHrodo red labeled antibody, control 84.88
Procedure: (§1) After MC38 and B16 cells were treated for 24 hours with anti-PD-L1 THIOMAB labeled with pHrodo™ red dye, A. high-definition phase images, red fluorescence images and combined images of cells were collected by using an IncuCyte® viable cell system; B. a total red object integrated intensity histogram was obtained by analysis using IncuCyte® software, wherein the logarithm of 10 was taken for the ordinate data. Student's t test was used to compare significant differences between the groups, and p<0.0001 is represented by ****.
(§2) The pHrodo™ red dye is known to be a pH sensitive fluorescent dye, which rapidly increases in molecular fluorescence intensity when the surrounding environment becomes acidic (Lehrman et al., 2018). When the dye was internalized into the cells along with the antigen-antibody complex, the pH of the environment around the dye was reduced to acidity, thereby producing an observable fluorescence signal. This property allowed the internalization process of the antibody to be monitored by using the pHrodo™ red dye. Through the IncuCyte® viable cell analysis system, the inventors could perform image-based monitoring and quantitative analysis on the internalization process of the anti-PD-L1 antibody labeled with the pHrodo™ red dye. […]

B16 cells = assay: as above; format: cell-based, mouse; conditions: 24 h, pHrodo red labeled antibody, control 98.53
Procedure: as §1, §2

B16 melanoma = assay: Anti-tumor activity in B16 melanoma mouse model; format: in vivo; conditions: B16 mice, i.p.; antibody drugs 150 μg, D18 25 μg per mouse; dosing to day 21
Excerpt: A. Treatment with ADC HE-S2, single administration of anti-PD-L1 antibody, D18, or anti-PD-L1 THIOMAB, and anti-PD-L1 antibody/D18 combined administration for inhibitory activity against mouse MC38 tumor growth. B. Whole animal survival study. The ordinate of the curve represents the percentage of tumor-bearing mice that remained alive after different days, and the abscissa thereof represents the number of experimental days. C. Treatment with ADC HE-S2, single administration of anti-PD-L1 antibody, D18, or anti-PD-L1 THIOMAB, and anti-PD-L1 antibody/D18 combined administration for inhibitory activity against mouse MC38 tumor growth. Student's t test was used to compare significant differences between the groups, and p<0.001 is represented by ***.
B16 melanoma is a tumor with low PD-L1 level and certain drug resistance to PD-1/PD-L1 blocking treatment. As a result, as expected by the inventors, the inhibitory effect of each drug on B16 melanoma was reduced relative to the MC38 tumor.
Dosage: Antibody drugs, administered 150 μg per mouse for each time, and D18, administered 25 μg per mouse for each time. - means no administration on the day. * Only mice with MC38 tumor model were allowed to be administered until the 24th day, and mice with B16 tumor model were no longer administered after the 21st day.

[1] = tested on: PD-L1 negative Cd274 knockout DC 2.4 cells; assay: Preliminary internalization experiment in DC cells (FACS, 10% FBS); format: cell-based, mouse; conditions: Cd274 knockout DC 2.4, 10% FBS, incubation 8 h, pHrodo red labeled antibody
Procedure: (§3) PD-L1 positive wild-type DC 2.4 cells and PD-L1 negative Cd274 knockout DC 2.4 cells were cultured in a 10% FBS culture medium, anti-PD-L1 THIOMAB labeled with pHrodo™ red dye was added after the cell state was stable, and the cells were incubated overnight. The intracellular red fluorescence intensity was then analyzed by FACS to characterize the internalization level of THIOMAB.
(§4) To verify internalization of anti-PD-L1 THIOMAB on DC cells, the inventors acquired two kinds of DC cells, which were Cd274 knockout DC 2.4 cells and wild-type DC 2.4 cells, from the teacher named Tang Haidong of the School of Pharmaceutical Sciences, Tsinghua University. The Cd274 gene was a PD-L1 encoding gene, and the knocked-out DC 2.4 could not express PD-L1 protein, so the first kind of cells was PD-L1 negative DC cells; while wild-type DC 2.4 could express PD-L1, so the second kind of cells was PD-L1 positive DC cells (as shown in FIG. 12). […]
(§5) In preliminary experiments, the inventors added 10% heat-inactivated fetal bovine serum (FBS) as a blocking agent to a culture medium of DC 2.4 cells according to a conventional procedure, and detected the red fluorescence signals in the cells by FACS after incubation for 8 h, and the results are shown in FIG. 13. […]

[2] = tested on: PD-L1 positive wild-type DC 2.4 cells; assay: as above; format: cell-based, mouse; conditions: wild-type DC 2.4, 10% FBS, incubation 8 h, pHrodo red labeled antibody
Procedure: as §3, §4, §5

For “anti-PD-L1 THIOMAB: mutant avelumab, light chain V205C (SEQ ID NO: 9), heavy chain SEQ ID NO: 4; pHrodo red labeled in internalization tests”, the “total red object integrated intensity” value (MC38 cells) was 13701.63, the “total red object integrated intensity” value (B16 cells) was 283613.60 and the “inhibitory effect on B16 melanoma” value (B16 melanoma) was “almost comparative to that of the IgG isotype antibody”. The “proportion of red fluorescence positive cells” value [1] was 52.9% and the “proportion of red fluorescence positive cells” value [2] was 53.6%.
